Test results as given in patent US10752587B2, “Homobispiperidinyl derivatives as liver X receptor beta agonists, compositions and their use” (Merck Sharp & Dohme Corp., priority 2015, dated 2020).
Where two headings read alike, the source gives them in different places.

How the values were obtained:
[1] = biological target: T1, glutathione-S-transferase (GST) tagged LXRalpha LBD (ligand binding domain) (Homo sapiens, UniProt Q13133); assay: LanthaScreen TR-FRET Liver X Receptor Coactivator Assay, co-activator recruitment to LXRalpha LBD; format: biochemical; details: for EC50 / LXR alpha IP (Inflection Point, potency): co-activator recruitment to GST-LXRalpha LBD, TR-FRET; for EC50: read-out: LXR alpha IP (Inflection Point, potency); for Emax: read-out: LXR alpha Activity @ max dose
T1 construct: purchased Invitrogen pv4655
T1 sequence (Q13133 209-447 limits assumed): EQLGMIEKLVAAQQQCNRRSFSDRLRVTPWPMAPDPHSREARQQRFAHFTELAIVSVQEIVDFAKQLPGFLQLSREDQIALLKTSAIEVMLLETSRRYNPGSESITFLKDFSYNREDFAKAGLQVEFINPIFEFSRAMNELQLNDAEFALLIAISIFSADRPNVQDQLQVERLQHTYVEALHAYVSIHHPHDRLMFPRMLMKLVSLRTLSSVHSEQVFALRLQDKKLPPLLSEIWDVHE
Procedure, shortened: (§1)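 TR-FRET coactivator recruitment; compound + LBD, then fluorescein-coactivator peptide/Tb-anti-GST Ab mix; RT incubation; IP and Emax vs T0901317.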

[2] = biological target: T2, glutathione-S-transferase (GST) tagged LXRbeta LBD (ligand binding domain) (Homo sapiens, UniProt P55055); assay: LanthaScreen TR-FRET Liver X Receptor Coactivator Assay, co-activator recruitment to LXRbeta LBD; format: biochemical; details: for EC50: co-activator recruitment to GST-LXRbeta LBD, TR-FRET, read-out: LXR beta IP (Inflection Point, potency); for Emax: read-out: LXR beta Activity @ max dose
T2 construct: purchased Invitrogen pv4658.pps
T2 sequence (P55055 222-460 limits assumed): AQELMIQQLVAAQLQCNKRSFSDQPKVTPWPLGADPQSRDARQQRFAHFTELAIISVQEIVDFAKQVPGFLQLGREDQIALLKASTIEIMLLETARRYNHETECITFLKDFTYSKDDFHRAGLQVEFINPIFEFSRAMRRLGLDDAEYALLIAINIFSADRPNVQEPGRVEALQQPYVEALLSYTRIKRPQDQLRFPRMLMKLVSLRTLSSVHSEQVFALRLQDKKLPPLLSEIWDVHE
Procedure, shortened: as §1

[3] = efficacy in relation to reference dual agonist T0901317

SMILES	EC50 [1] [nM]	Emax [1, 3] [%]	EC50 [2] [nM]	Emax [2, 3] [%]	LXR alpha IP (Inflection Point, potency) [1]	Emax [1] [%]	Emax [2] [%]
COc1cccc(S(=O)(=O)N2CC(CC3CCN(c4ccc(C(=O)N(C)C)c(Cl)c4)CC3)C2)c1 [Example 13-2, 2-chloro-4-[4-({1-[(3-methoxyphenyl)-sulfonyl]azetidin-3-yl}methyl)piperidin-1-yl]-N,N-dimethyl-benzamide]	3390	26	96	70			
COc1cccc(CS(=O)(=O)N2CC(CC3CCN(c4ccc(C(=O)N(C)C)c(Cl)c4)CC3)C2)c1 [Example 13-3, 2-chloro-4-[4-({1-[(3-methoxybenzyl)-sulfonyl]azetidin-3-yl}methyl)piperidin-1-yl]-N,N-dimethyl-benzamide]		0	604	26	NO IP		
CN(C)C(=O)c1ccc(N2CCC(CC3CCN(S(=O)(=O)c4cccs4)CC3)CC2)cc1Cl [Example 13-4, 2-chloro-N,N-dimethyl-4-(4-{[1-(thiopen-2-ylsulfonyl)piperidin-4-yl]methyl}piperidin-1-yl)benzamide]	264	43	26	67			
CN(C)C(=O)c1ccc(N2CCC(CC3CCN(S(=O)(=O)c4cc(F)ccc4F)CC3)CC2)cc1Cl [Example 13-5, 2-chloro-4-[4-({1-[(2,5-difluorophenyl)-sulfonyl]piperidin-4-yl}methyl)piperidin-1-yl]-N,N-dimethylbenzamide]	590	33	52	63			
CN(C)C(=O)c1ccc(N2CCC(CC3CCN(S(=O)(=O)c4cc(F)cc(F)c4)CC3)CC2)cc1Cl [Example 13-6, 2-chloro-4-[4-({1-[(3,5-difluorophenyl)-sulfonyl]piperidin-4-yl}methyl)piperidin-1-yl]-N,N-dimethylbenzamide]		12	75	41	NO IP		
CN(C)C(=O)c1ccc(N2CCC(CC3CCN(S(=O)(=O)c4cccc(F)c4)CC3)CC2)cc1Cl [Example 13-7, 2-chloro-4-[4-({1-[(3-fluorophenyl)sulfonyl]-piperidin-4-yl}methyl)-piperidin-1-yl]-N,N-dimethylbenzamide]	1190	25	60	67			
CN(C)C(=O)c1ccc(N2CCC(CC3CCN(S(=O)(=O)c4ccccc4F)CC3)CC2)cc1Cl [Example 13-8, 2-chloro-4-[4-({1-[(2-fluorophenyl)sulfonyl]-piperidin-4-yl}methyl)-piperidin-1-yl]-N,N-dimethylbenzamide]	935	46	43	95			
CN(C)C(=O)c1ccc(N2CCC(CC3CCN(S(=O)(=O)c4ccc(Cl)s4)CC3)CC2)cc1Cl [Example 13-9, 2-chloro-4-[4-({1-[(5-chlorothiophen-2-yl)-sulfonyl]piperidin-4-yl}methyl)piperidin-1-yl]-N,N-dimethylbenzamide]		0	230	20	NO IP		
CN(C)C(=O)c1ccc(N2CCC(CC3CCN(S(=O)(=O)c4cccc(OC(F)F)c4)CC3)CC2)cc1Cl [Example 13-10, 2-chloro-4-{4[(1-{[3-(difluoromethoxy)-phenyl]sulfonyl}-piperidin-4-yl)methyl]-piperidin-1-yl}-N,N-dimethylbenzamide]		5	104	52	NO IP		
COc1cccc(S(=O)(=O)N2CCC(CC3CCN(c4ccc(C(=O)N(C)C)c(Cl)c4)CC3)CC2)c1 [Example 13-11, 2-chloro-4-[4({1-[(3-methoxyphenyl)-sulfonyl]piperidin-4-yl}methyl)piperidin-1-yl]-N,N-dimethyl-benzamide]	733	23	98	64			
CN(C)C(=O)c1ccc(N2CCC(CC3CCN(S(=O)(=O)c4cccc(Br)c4)CC3)CC2)cc1Cl [Example 13-12, 4-[4-({1-[(3-bromo-phenyl)sulfonyl]-piperidin-4-yl}methyl)-piperidin-1-yl]-2-chloro-N,N-dimethyl-benzamide]		16	83	54	NO IP		
CN(C)C(=O)c1ccc(N2CCC(CC3CCN(S(=O)(=O)c4cccc(Cl)c4)CC3)CC2)cc1Cl [Example 13-13, 2-chloro-4-[4-({1-[(3-chlorophenyl)sulfonyl]-piperidin-4-yl}methyl)-piperidin-1-yl]-N,N-dimethylbenzamide]		15	74	49	NO IP		
CN(C)C(=O)c1ccc(N2CCC(CC3CCN(S(=O)(=O)c4ccc(F)cc4)CC3)CC2)cc1Cl [Example 13-14, 2-chloro-4-[4-({1-[(4-fluorophenyl)sulfonyl]-piperidin-4-yl}methyl)-piperidin-1-yl]-N,N-dimethylbenzamide]	2730	24	497	58			
CN(C)C(=O)c1ccc(N2CCC(CC3CCN(S(=O)(=O)c4cc(F)cc(C(F)(F)F)c4)CC3)CC2)cc1Cl [Example 13-15, 2-chloro-4-{4-[(1-{[3-fluoro-5-(trifluoro-methyl)phenyl]-sulfonyl}piperidin-4-yl)methyl]piperidin-1-yl}-N,N-dimethylbenzamide]		0	171	32	NO IP		
CN(C)C(=O)c1ccc(N2CCC(CC3CCN(S(=O)(=O)c4cccc(OC(F)(F)F)c4)CC3)CC2)cc1Cl [Example 13-16]		0	135	35	NO IP		
CN(C)C(=O)c1ccc(N2CCC(CC3CN(S(=O)(=O)c4ccccc4)C3)CC2)nc1Cl [Example 14-1, 2-chloro-N,N-dimethyl-6-(4-((1-(phenylsulfonyl)azetidin-3-yl)methyl)piperidin-1-yl)nicotinamide]	3430		44			55	111
COc1cccc(S(=O)(=O)N2CC(CC3CCN(c4ccc(C(=O)N(C)C)c(Cl)n4)CC3)C2)c1 [Example 14-2, 2-chloro-6-[4-({1-[(3-methoxyphenyl)-sulfonyl]azetidin-3-yl}methyl)piperidin-1-yl}-N,N-dimethyl-pyridine-3-carboxamide]	10300	45	50	93			
COc1cccc(CS(=O)(=O)N2CC(CC3CCN(c4ccc(C(=O)N(C)C)c(Cl)n4)CC3)C2)c1 [Example 14-3, 2-chloro-6-[4({1-[(3-methoxybenzyl)-sulfonyl]azetidin-3-yl}methyl)piperidin-1-yl]-N,N-dimethyl-pyridine-3-carboxamide]		5	1510	48	NO IP		
